# From ChEMBL document CHEMBL4340507, “Identification of an indol-based multi-target kinase inhibitor through phenotype screening and target fishing using inverse virtual screening approach” (Eur J Med Chem, 2019)
# Calls of active or inactive are those of the source. No cut-off for these calls is given here.
# Key:
# MCF7 = experiment: Antiproliferative activity against human MCF7 cells assessed as decrease in cell viability measured after 72 hrs by MTT assay; assay type: functional, cell-based; details: MCF7, 72 h
# PC-3 = experiment: Antiproliferative activity against human PC3 cells assessed as decrease in cell viability measured after 72 hrs by MTT assay; assay type: functional, cell-based; details: PC-3, 72 h
# Jurkat = experiment: Antiproliferative activity against human Jurkat T cells assessed as decrease in cell viability measured after 24 to 72 hrs by MTT assay; assay type: functional, cell-based
# IEC-6 [1] = experiment: Cytotoxicity against rat IEC-6 cells assessed as reduction in cell viability measured after 24 to 72 hrs by MTT assay; assay type: cell-based; details: Rattus norvegicus, IEC-6
# [2] = biological target: BDNF/NT-3 growth factors receptor (Homo sapiens, UniProt Q16620); experiment: Inhibition of recombinant human N-terminal GST-His6-fused TRKB C-terminal domain (V526 to G838 residues) expressed in Sf9 insect cells using Poly(Glu:Tyr)4:1 as substrate measured after 60 mins in presence of [gamma-33P]-ATP by scintillation counting method
# [3] = biological target: Receptor tyrosine-protein kinase erbB-4 (Homo sapiens, UniProt Q15303); experiment: Inhibition of recombinant human N-terminal GST-His6-fused ERBB4 C-terminal domain (R676 to V1307 residues) expressed in Sf9 cells using Poly(Glu:Tyr)4:1 as substrate measured after 60 mins in presence of [gamma-33P]-ATP by scintillation counting method
# [4] = biological target: Fibroblast growth factor receptor 4 (Homo sapiens, UniProt P22455); experiment: Inhibition of recombinant human N-terminal GST-His6-fused FGFR4 (R391 to T802 residues) expressed in baculovirus infected Sf9 cells using Poly(Glu:Tyr)4:1 as substrate measured after 60 mins in presence of [gamma-33P]-ATP by scintillation counting method
# [5] = biological target: Mast/stem cell growth factor receptor Kit (Homo sapiens, UniProt P10721); experiment: Inhibition of recombinant human wild-type N-terminal GST-His6-fused KIT C-terminal domain (T544 to V976 residues) expressed in Sf9 insect cells using TRK-C derived peptide as substrate measured after 60 mins in presence of [gamma-33P]-ATP by scintillation counting method
# [6] = biological target: 3-phosphoinositide-dependent protein kinase 1 (Homo sapiens, UniProt O15530); experiment: Inhibition of recombinant human N-terminal His6-fused PDK1 (M1 to M460 residues) expressed in Sf9 insect cells using tetra(LRRWSLG) peptide as substrate measured after 60 mins in presence of [gamma-33P]-ATP by scintillation counting method
# [7] = biological target: Fibroblast growth factor receptor 2 (Homo sapiens, UniProt P21802); experiment: Inhibition of recombinant human N-terminal GST-His6-fused FGFR2 C-terminal domain (R400 to T822 residues) expressed in Sf9 insect cells using TRK-C derived peptide as substrate measured after 60 mins in presence of [gamma-33P]-ATP by scintillation counting method
# [8] = biological target: Rho-associated protein kinase 1 (Homo sapiens, UniProt Q13464); experiment: Inhibition of recombinant human ROCK1 measured after 60 mins in presence of [gamma-33P]-ATP by scintillation counting method
# [9] = biological target: Mitogen-activated protein kinase 15 (Homo sapiens, UniProt Q8TD08); experiment: Inhibition of recombinant human N-terminal 4xFLAG-tagged/C-terminal His8-fused ERK7 N-terminal domain (M1 to R354 residues) expressed in Sf9 insect cells using RBER-CHKtide as substrate measured after 60 mins in presence of [gamma-33P]-ATP by scintillation counting method
# [10] = biological target: Mitogen-activated protein kinase 3 (Homo sapiens, UniProt P27361); experiment: Inhibition of recombinant human full-length N-terminal GST-His6 fused ERK1 (M1 to P379 residues) expressed in Escherichia coli using RBER-CHKtide as substrate measured after 60 mins in presence of [gamma-33P]-ATP by scintillation counting method
# [11] = biological target: Mitogen-activated protein kinase kinase kinase 1 (Homo sapiens, UniProt Q13233); experiment: Inhibition of recombinant human N-terminal 4xFLAG-tagged/C-terminal His8 fused MAP3K1 C-terminal domain (M1193 to W1512 residues) expressed in Sf9 insect cells using Bio-RS-Peptide as substrate measured after 60 mins in presence of [gamma-33P]-ATP by scintillation counting method
# [12] = biological target: Dual specificity mitogen-activated protein kinase kinase 2 (Homo sapiens, UniProt P36507); experiment: Inhibition of recombinant human MEK2 measured after 60 mins in presence of [gamma-33P]-ATP by scintillation counting method
# [13] = biological target: Mitogen-activated protein kinase 14 (Homo sapiens, UniProt Q16539); experiment: Inhibition of recombinant human full-length untagged p38-alpha (M1 to S360 residues) expressed in Escherichia coli cells using recombinant ATF2 as substrate measured after 60 mins in presence of [gamma-33P]-ATP by scintillation counting method
# [14] = biological target: Casein kinase II subunit alpha' (Homo sapiens, UniProt P19784); experiment: Inhibition of recombinant human full-length N-terminal GST-His6-fused CK2-alpha2 (M1 to R350 residues) expressed in Sf9 insect cells using casein as substrate measured after 60 mins in presence of [gamma-33P]-ATP by scintillation counting method
# [15] = biological target: Mitogen-activated protein kinase kinase kinase 9 (Homo sapiens, UniProt P80192); experiment: Inhibition of recombinant human MAP3K9 measured after 60 mins in presence of [gamma-33P]-ATP by scintillation counting method
# [16] = biological target: Dual specificity mitogen-activated protein kinase kinase 1 (Homo sapiens, UniProt Q02750); experiment: Inhibition of recombinant human wild-type full-length MEK1 (M1 to V393 residues) expressed in Sf9 insect cells using ERK2-K54R as substrate measured after 60 mins in presence of [gamma-33P]-ATP by scintillation counting method
# HeLa [17] = experiment: Induction of apoptosis in human HeLa cells assessed as increase in hypodiploid nuclei at 0.3 to 0.6 uM measured after 24 hrs by propidium iodide staining-based FACS analysis; assay type: functional, cell-based
# HeLa [18] = experiment: Induction of apoptosis in human HeLa cells assessed as increase in caspase 3 level at 0.1 to 0.6 uM after 24 hrs by FACS analysis; assay type: functional, cell-based
# IEC-6 [19] = experiment: Induction of apoptosis in rat IEC-6 cells assessed as increase in caspase 3 level at 0.1 to 0.6 uM after 24 hrs by FACS analysis; assay type: cell-based; details: iec-6, 24 h
# HeLa [20] = experiment: Down regulation of ERK expression in human HeLa cells at 0.1 to 0.6 uM after 24 hrs by FACS analysis; assay type: functional, cell-based
# HeLa [21] = experiment: Inhibition of ERK phosphorylation in human HeLa cells at 0.1 to 0.6 uM after 24 hrs by FACS analysis; assay type: cell-based
# HeLa [22] = experiment: Induction of apoptosis in human HeLa cells assessed as effect on PARP level at 0.1 to 0.6 uM after 24 hrs by FACS analysis; assay type: functional, cell-based
# IEC-6 [23] = experiment: Induction of apoptosis in rat IEC-6 cells assessed as effect on PARP level at 0.1 to 0.6 uM after 24 hrs by FACS analysis; assay type: cell-based; details: iec-6, 24 h
smiles,measurement,setting,value
CN(CCc1ccc(-c2ccccc2)cc1)Cc1cn(C)c2ccc(C(=O)Nc3ccc(F)cc3)cc12,IC50,MCF7,2160 nM
same,IC50,PC-3,16.9 µM
same,IC50,Jurkat,2700 nM
same,IC50,IEC-6 [1],6.43 µM
same,IC50,[2],6.3 µM
same,IC50,[3],7.9 µM
same,IC50,[4],11 µM
same,IC50,[5],11 µM
same,IC50,[6],11 µM
same,IC50,[7],23 µM
same,IC50,[8],35 µM
same,IC50,[9],61 µM
same,IC50,[10],65 µM
same,IC50,[11],66 µM
same,IC50,[12],74 µM
same,IC50,[13],88 µM
same,IC50,[14],99 µM
same,IC50,[15],100 µM
same,IC50,[16],> 100 µM
same,Activity,HeLa [17],Active
same,Activity,HeLa [18],Active
same,Activity,IEC-6 [19],Toxic
same,Activity,HeLa [20],Active
same,inhibition,HeLa [21],Active
same,Activity,HeLa [22],inactive
same,Activity,IEC-6 [23],Non-Toxic
